Test results as given in US20060286054A1, “PHARMACEUTICAL COMPOSITIONS FOR THE TREATMENT OF PSORIASIS” (Apollo Pharmaceutical, Inc., priority 2005, published 2006).
Values joined by “and” are separate entries in the source; they are usually repeats but may differ in a detail not shown here. Equal entries are not always repeated.

Columns and labels:
[1] = test system: keratinocyte; settings: Muller et al. 1995; cited from earlier work
[2] = test system: THP-1 cells; experiment: MTT assay of THP-1 cell proliferation; type: cell-based; settings: titration
Procedure: THP-1 cells were sub-cultured in 96 well culture plates at a density of 20,000 cells/well. LPS (100 ng/ml) and titrating amounts of Psorberine and/or Calcipotriol were then added to triplicate wells. The cells were cultured for 5 days, at which point the culture plates were centrifuged, the culture media removed and saved, and fresh media containing 0.863 mg/ml MTT added. After culturing for an additional 4 h, the plates were centrifuged again, the media removed from the formazan crystals and the well contents solubilized in DMSO. The absorbance of each well at 560 nm was measured. The data were normalized to the averaged results of the control wells receiving water. The culture supernatants were tested in ELISA (Bio-Source, International) for IL-8, TNF-α and IL-1β content. The effect of Psorberine on THP-1 cell proliferation was examined. […] The increase in the percentage of control seen in the MTT assay at the high concentrations of Psorberine (1:10 and 1:20 dilutions), is most probably due to the strong coloring of the compound (dark green). There is a very high OD recovered from MTT assay upon incubating […] cells with these dilutions of Psorberine.

[3] = test system: Peripheral blood T cell; experiment: T cell proliferation measured by the MTT assay; type: cell-based; settings: for MTT % of Control: T cells, W/LPS
Procedure: Twenty ml aliquots of heparinized whole blood were subjected to density gradient centrifugation on Ficoll Hypaque. The buffy coat layers representing peripheral blood mononuclear cells (PBMCs) containing lymphocytes and monocytes were washed once, resuspended in RPMI 1640 containing 10% fetal calf sera and then depleted of B cells and monocytes with a T cell enrichment column (R&D Systems). The T cell preparations were centrifuged, resuspended in 5 ml of incomplete RPMI and counted using a hemocytometer. Aliquots of each cell preparation (40,000 cells in 200 μl of incomplete RPMI) were placed in the wells of 96 well culture plates and cultured overnight at 37° C. under 5% CO2. Twenty five μl of RPMI containing 1 μg/ml PMA and 8 μg/ml ionomycin. After culturing for 24 h, the plates were centrifuged at 1200 rpm for 10 min and the culture supernatants removed and saved. Two hundred μl of complete RPMI containing 0.86 mg/ml MTT was added to each well and the plates cultured for an additional 4 h. The plates were centrifuged again, the media removed and the well contents solubilized in 100% DMSO. The optical density at 560 nm of each well was determined and the averaged mean of the duplicate well calculated. The background OD560 value, determined from control wells receiving media containing no MTT, was subtracted from these values and the data normalized to that of the control wells (0 nM compound). IL-2 secretion by activated T cells was determined in the culture supernatants of these cells. The supernatants were assessed using the R&D Biosystems ELISA kit for human IL-2.

[4] = test system: IL-2; experiment: IL-2 release from THP-1 cells; type: cell-based; settings: titration curve centered at ˜5 nM
[5] = test system: IL-2; experiment: IL-2 secretion by peripheral blood T cells activated with PMA plus ionomycin (ELISA); type: cell-based, human; settings: 24 h, between 0.01-10 nM
Procedure: Twenty ml aliquots of heparinized whole blood were subjected to density gradient centrifugation on Ficoll Hypaque. The buffy coat layers representing peripheral blood mononuclear cells (PBMCs) containing lymphocytes and monocytes were washed once, resuspended in RPMI 1640 containing 10% fetal calf sera and then depleted of B cells and monocytes with a T cell enrichment column (R&D Systems). The T cell preparations were centrifuged, resuspended in 5 ml of incomplete RPMI and counted using a hemocytometer.
Aliquots of each cell preparation (40,000 cells in 200 μl of incomplete RPMI) were placed in the wells of 96 well culture plates and cultured overnight at 37° C. under 5% CO2. […] The optical density at 560 nm of each well was determined and the averaged mean of the duplicate well calculated. The background OD560 value, determined from control wells receiving media containing no MTT, was subtracted from these values and the data normalized to that of the control wells (0 nM compound). IL-2 secretion by activated T cells was determined in the culture supernatants of these cells. The supernatants were assessed using the R&D Biosystems ELISA kit for human IL-2.
The release of IL-2 was also determined 24 h after stimulating peripheral blood T cells with PMA plus ionomycin, in the presence or absence of Psorberine and/or Calcipotriol. […]

[6] = test system: Jurkat cells; experiment: In vitro chemotaxis assay of Jurkat cells towards SDF-1α; type: cell-based; settings: for Cell Number (migrated cells per filter) / Migration Index (MI): filters 1-4
Procedure: Jurakt cells ere grown in cultures in the presence of complete RPMI media. These cells were split one day prior to the assay. More than 99% viable cells were used in the chemotaxis assay. SDF-1α was purchased from Peprotech, Inc.
96 well plate chemotaxis chambers with a pore size of […] (ChemoTx, Neuro Probe, Inc.) were used in this assay. In the lower wells 30 μl of either RPMI plus 0.1% BSA (control), or 30 μl containing 1 μg/ml SDF-1α (positive chemotaxis) were placed. In other wells, 24 μl containing 1 μg/ml SDF-1α was added to 6 μl of media containing the appropriate concentrations of Psorberine, Calcipotriol or their combination. In the upper wells, 20 μl of media containing 20,000 cells (1×10^6/ml) either alone or in combinations with the compounds were placed. After 2 h, the upper part of the filters was washed with coton swaps to remove the non-migrating cells, and the filters were fixed with absolute methanol for 3 minutes. After this, the filters were stained with 15% Giemsa stain for 7.5 min. The filters were washed three times with distilled water, and the cells migrating to the lower wells were counted under light micriscope. For control (cells migrating in the absence of the chemoattractant), 7 filters were used, whereas 4 filters were used in the experimental conditions. Migration Index (MI) was calculated by dividing the number of cells migrating in the experimental filters by the average number of cells migrating in the control filters.

[7] = test system: Jurkat cells; experiment: Viability of Jurkat cells (Trypan blue exclusion); type: cell-based
Procedure: The chemotaxis assay was corroborated by determining the viability of Jurkat cells. Viability of these cells either incubated in culture medium alone or with Psorberine or Calcipotriol under the same conditions as in the chemotaxis assay, was done by distinguishing dead from viable cells in the Trypan blue exclusion test. Viability of THP-1 cells was determined after incubating these cells with various concentrations of Psorberine for 4 h.

[8] = 1 μg/ml SDF-1α + 20 nM Calcipotriol
[9] = 1 μg/ml SDF-1α + 80 nM Calcipotriol
[10] = 1 μg/ml SDF-1α + 160 nM Calcipotriol

## COc1ccc2cc3[n+](cc2c1OC)CCc1cc2c(cc1-3)OCO2 [berberine]
[1]
  keratinocyte growth in vitro: inhibits

## C=C1/C(=C\C=C2/CCC[C@]3(C)[C@@H]([C@H](C)/C=C/[C@@H](O)C4CC4)CC[C@@H]23)C[C@@H](O)C[C@@H]1O [Calcipotriol, calcipotriol]
[2]
  effect of titrating levels on THP-1 cell proliferation: multi-phasic, with stimulation seen above concentrations of 1 nM
[3]; concentration 0.050 (unit not given)
  MTT % of Control: 109.0164%
[3]; concentration 0.100 (unit not given)
  MTT % of Control: 88.52%
[3]; concentration 0.500 (unit not given)
  MTT % of Control: 107.377%
[3]; concentration 1.000 (unit not given)
  MTT % of Control: 99.18%
[3]; concentration 5.000 (unit not given)
  MTT % of Control: 78.69%
[3]; concentration 10.000 (unit not given)
  MTT % of Control: 116.3934%
[3]; concentration 50.000 (unit not given)
  MTT % of Control: 113.1148%
[3]; concentration 100.000 (unit not given)
  MTT % of Control: 83.61%
[3]; absence or presence of PMA plus ionomycin
  T cell proliferation: Significant differences in T cell proliferation were not observed
[4]
  IL-2 release: slight increase
[5]
  reduction of IL-2 concentration: 40-50%
[6]; [8]
  Cell Number (migrated cells per filter): 240 and 200 and 155 and 170
  Migration Index (MI): 5.7 and 4.8 and 3.7 and 4.1
[6]; [9]
  Cell Number (migrated cells per filter): 240 and 160 and 180 and 220
  Migration Index (MI): 5.7 and 3.8 and 4.3 and 5.2
[6]; [10]
  Cell Number (migrated cells per filter): 200 and 198 and 150 and 205
  Migration Index (MI): 4.8 and 4.7 and 3.6 and 4.9
[6]; between 20-160 nM
  SDF-1α-induced Jurkat cell chemotaxis: did not affect
[7]; 20 nM Calcipotriol
  # Dead Cells: 178
  # Viable Cells: 18
  % Viability: 91%
[7]; 80 nM Calcipotriol
  # Dead Cells: 175
  # Viable Cells: 17
  % Viability: 91%
[7]; 160 nM Calcipotriol
  # Dead Cells: 134
  # Viable Cells: 11
  % Viability: 92%
